{"source": "patent US9801873B2", "about": "“Methods for treating humans having brain cancer” (priority 2008, dated 2017)", "key": {"[1]": {"experiment": "Phase 1 trial: plasma pharmacokinetics by LC-MS/MS and population PK model (SN-38 exposure and half-life)", "settings": "plasma analyte after administration of Compound I", "description": "Tumor responses were evaluated according to RECIST (Response Evaluation Criteria in Solid Tumors) criteria."}, "A2780 ovarian tumors": {"system": "A2780 ovarian tumors", "settings": "for tumor growth delay (TGD): 3 weekly intravenous injections; for activity in A2780 ovarian tumor model: 3 weekly intra-peritoneal administrations", "method": "Anti-tumor efficacy was evaluated based on tumor growth delay (TGD) in mice and response rate in mice and humans.\nAnimals were weighed and monitored twice weekly, and tumor volumes were measured until an endpoint was met (2000 mm^3 or 60 days). Anti-tumor efficacy was evaluated based on tumor growth delay and response rate or partial or complete regression (PR or CR). In a PR, the tumor volume was 50% or less of its Day 1 volume for three consecutive measurements, and equal to or greater than 14 mm^3 for one or more of these three measurements. In a CR, the tumor volume was less than 14 mm^3 for three consecutive measurements. An animal with a CR response at termination was additionally classified as tumor-free survivior (TFS). A Student's T-test was performed to calculate statistical significance (p<0.05)."}, "[2]": {"settings": "cited from earlier work"}}, "note": "Read-outs that look alike come from different tables or passages of the source."}
{"smiles": "CCc1c2c(nc3ccc(O)cc13)-c1cc3c(c(=O)n1C2)COC(=O)[C@]3(O)CC", "note": "[SN-38, 7-ethyl-10-hydroxy camptothecin]", "values": [{"measurement": "T1/2 λz, In Responding Patients (range)", "setting": "[1]", "value": "14.4 to 98.3", "unit": "days"}, {"measurement": "T1/2 λz, Population Estimate in Responding Patients", "setting": "[1]", "value": 49.1, "unit": "days"}]}
{"smiles": "CCc1c2c(nc3ccc(OC(=O)N4CCC(N5CCCCC5)CC4)cc13)-c1cc3c(c(=O)n1C2)COC(=O)[C@]3(O)CC", "note": "[irinotecan]", "values": [{"measurement": "tumor growth delay (TGD)", "setting": "A2780 ovarian tumors; 50 mg/kg", "value": 12, "unit": "days"}, {"measurement": "tumor growth delay (TGD)", "setting": "A2780 ovarian tumors; 100 mg/kg", "value": 15, "unit": "days"}, {"measurement": "tumor growth delay (TGD)", "setting": "A2780 ovarian tumors; 150 mg/kg", "value": 16, "unit": "days"}, {"measurement": "tolerability in mice", "setting": "A2780 ovarian tumors; 3 weekly intravenous doses of 50, 100, or 150 mg/kg", "value": "acute effects immediately after dosing (tremors, hypoactivity, ataxia, pilo-erection, increased stool production)"}, {"measurement": "partial responses (PR)", "setting": "A2780 ovarian tumors; highest dose (150 mg/kg), n=10", "value": "one partial response (PR)"}, {"measurement": "SN-38 plasma levels", "setting": "[2]; higher doses (2.8, 4.6 mg/m^2 per day), dosing period of 63 days", "value": "2 to 4", "unit": "ng/mL"}, {"measurement": "SN-38 plasma levels", "setting": "[2]; lowest dose (1.4 mg/m^2 per day continuous iv infusion), up to 63 days", "value": "around 1 ng/ml"}]}
{"smiles": "N.N.[Cl][Pt][Cl]", "note": "[cisplatin]", "values": [{"measurement": "activity in A2780 ovarian tumor model", "setting": "A2780 ovarian tumors", "value": "inactive"}]}
{"smiles": "N.N.O=C([O-])C1(C(=O)[O-])CCC1.[Pt+2]", "note": "[carboplatin]", "values": [{"measurement": "activity in A2780 ovarian tumor model", "setting": "A2780 ovarian tumors", "value": "inactive"}]}
